Reference: PubChem BioAssay (NCI)
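Growth conditions: 96-well plates. Treatment: test compound, 48 hours, 5 concentrations. Analysis: linear interpolation between bracketing concentrations; unreached endpoints set to highest concentration. TGI: total growth inhibition.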 Where a SMILES comes first, the peptide text is derived from it.

Columns and labels:
Test in all cases: growth of human tumour cells (NCI), 48 h
[1] = tested on: U251 CNS
[2] = tested on: UACC-62 melanoma
[3] = tested on: SR leukemia
[4] = tested on: SF-268 CNS
[5] = tested on: HS 578T breast
[6] = tested on: A549 NSCLC
[7] = tested on: HOP-92 NSCLC
[8] = tested on: MALME-3M melanoma
[9] = tested on: NCI/ADR-RES ovarian
[10] = tested on: SNB-75 CNS
[11] = tested on: KM12 colon
[12] = tested on: MDA-MB-231 breast
[13] = tested on: SF-539 CNS

SMILES	TGI [1] [µM]	TGI [2] [µM]	TGI [3] [µM]	TGI [4] [µM]	TGI [5] [µM]	TGI [6] [µM]	TGI [7] [µM]	TGI [8] [µM]	TGI [9] [µM]	TGI [10] [µM]	TGI [11] [µM]	TGI [12] [µM]	TGI [13] [µM]
Cc1ccc2nc(-c3ccc(N)c(I)c3)sc2c1	98.6	> 100	19.8	88.7	> 100	58.7	71.5	> 100	> 100	> 100	56.1	> 100	68.3
CCC(C)C(NC(=O)C(CCCCN)NC(=O)C(NC(=O)C(CCC(N)=O)NC(=O)C(N)CCCNC(=N)N)C(C)CC)C(=O)NC(Cc1c[nH]c2ccccc12)C(=O)NC(Cc1ccccc1)C(=O)NC(CCC(N)=O)C(=O)NC(CC(N)=O)C(=O)NC(CCCNC(=N)N)C(=O)NC(CCCNC(=N)N)C(=O)NC(CCSC)C(=O)NC(CCCCN)C(=O)NC(Cc1c[nH]c2ccccc12)C(=O)NC(CCCCN)C(=O)NC(CCCCN)C(=O)N1CCCC1C(=O)NC(C)C(=O)NC(CCCCN)C(=O)NC(CCCNC(=N)N)C(=O)NC(CCCCN)C(=O)NC(CC(C)C)C(=O)NC(Cc1ccccc1)C(=O)NCC(=O)O (stereo not drawn) (H-RQIKIWFQNRRMKWKKPAKRKLFG-OH; configuration not given here)	> 25		> 25	> 25	> 25	> 25	> 25	18.3	> 25	> 25	> 25	> 25	
CCOC(=O)c1nc2c(Cl)c3ncccc3cc2[nH]c1=O	> 100	50.4	> 100	> 100	> 100	> 100	> 100	> 100	> 100	> 100	> 100	> 100	> 100
CCOC(=O)C1=C(Nc2cccc(OC)c2)OCC1=O	> 100	> 100	> 100	> 100	> 100		> 100		> 100	> 100	> 100	> 100	> 100
O=C(NCCCNC(=O)c1ccc2c(O)c(O)ccc2c1)c1ccc2c(O)c(O)ccc2c1	64.4	> 90	> 90.7	58.1	56.1	> 100	> 100	> 100	> 100	42.5	39.7	> 73.4	> 100
O=C1/C(=C\c2ccc([N+](=O)[O-])o2)SC2N=C(COc3ccc(Cl)cc3)NN12 (stereo not drawn)	34.7		> 100	13.6	> 100	38.4	4.49	6.07	42.9	29.7	28.4	15.9	15.5
CO[C@H]1[C@@H](O)[C@@H](C)O[C@@H](O[C@H]2CC[C@@]3(C)[C@H](CC[C@@H]4[C@@H]3CC[C@]3(C)[C@@H](C5=CC(=O)OC5)[C@@H](OC(C)=O)C[C@]43O)C2)[C@@H]1O	0.186	0.215	> 50	0.0855	0.124	0.0241	0.577	0.0445	0.175	0.332	0.592	0.972	0.091
CC1=C(Br)C(Br)=C(C)S1=O	26	85.8	19.3	> 100	> 100	79.8	> 100	39.3	> 100		36.2	61.5	27.7
